# Reference: US12440529B2, “Topical Croton lechleri compositions and their use in the treatment of a bacterial colonization or primary or secondary bacterial infection of an underlying skin disorder” (ALPHYN BIOLOGICS, INC., priority 2020, dated 2025)
# Like-named read-outs stand apart in the source and are kept apart here.
# Tests used:
# cells = conditions: Chen, Planta Med. 60 (1994), cited from earlier work; for effect on cell proliferation: compounds obtained through extraction
# Pseudomonas aeruginosa = assay: In vitro MIC/MBC assay (2-fold microdilution), multi-drug resistant strain panel; assay type: cell-based
# Text: Of the 20, 5 are known to be Verona integron-encoded metallo-beta-lactamase (VIM)—producing Pseudomonas aeruginosa which are drug resistant strains of Pseudomonas aeruginosa, another 5 are know to be Klebsiella pneumoniae carbapenemase (KPC) producing Pseudomonas aeruginosa strains which are drug resistant strains of Pseudomonas aeruginosa, and 4 are known to be IMP-Type Metallo-β-Lactamase (IMP))—producing Pseudomonas aeruginosa which are drug resistant strains of Pseudomonas aeruginosa. The 6 remaining strains are known to be antibiotic resistant and are listed simply as MDR strains. […]
# [1] = system: S. pyogenes (Erythromycin and Tetracycline resistant strains); assay: MIC/MBC assay (2-fold microdilution, CAMHB with […] laked horse blood); assay type: cell-based; conditions: Streptococcus pyogenes
# Procedure: Tables 26 and 27 show an assay whose setup is same as what was used for screening S. aureus and P. aeruginosa (i.e. 2-fold microdilution). The 20 strains of S. pyogenes assayed were selected from the two rounds of antibiotic screening to identify Erythromycin and Tetracycline resistant strains. […] For this feasibility study, AB-101 Lot 1 and Lot 2 was used. P. aeruginosa ATCC 27853 was tested as a positive control for AB-101 activity.
molecule,measurement,setting,value
Oc1cc(O)c2c(c1)O[C@H](c1cc(O)c(O)c(O)c1)[C@@H](O)C2 [gallocatechin],effect on cell proliferation,cells,slightly stimulating
C[C@@H](O)[C@H]1C(=O)N2C(C(=O)O)=C(SCCN=CN)C[C@H]12 [Imipenem],MIC,"Pseudomonas aeruginosa; ATCC27853, strain ATCC 27853, QC strain",2 µg/mL
same,MIC,"Pseudomonas aeruginosa; strain CDC 0064, MDR",> 64 µg/mL
same,MIC,"Pseudomonas aeruginosa; strain CDC 0092, IMP",> 64 µg/mL
same,MIC,"Pseudomonas aeruginosa; strain CDC 0103, IMP",> 64 µg/mL
same,MIC,"Pseudomonas aeruginosa; strain CDC 0230, VIM",> 64 µg/mL
same,MIC,"Pseudomonas aeruginosa; strain CDC 0231, KPC",> 64 µg/mL
same,MIC,"Pseudomonas aeruginosa; strain CDC 0239, VIM",> 64 µg/mL
same,MIC,"Pseudomonas aeruginosa; strain CDC 0241, IMP",> 64 µg/mL
same,MIC,"Pseudomonas aeruginosa; strain CDC 0246, MDR",> 64 µg/mL
same,MIC,"Pseudomonas aeruginosa; strain CDC 0250, MDR",> 64 µg/mL
same,MIC,"Pseudomonas aeruginosa; strain CDC 0254, VIM",> 64 µg/mL
same,MIC,"Pseudomonas aeruginosa; strain CDC 0255, VIM",> 64 µg/mL
same,MIC,"Pseudomonas aeruginosa; strain CDC 0353, MDR",16 µg/mL
same,MIC,"Pseudomonas aeruginosa; strain CDC 0356, KPC",> 64 µg/mL
same,MIC,"Pseudomonas aeruginosa; strain CDC 0357, MDR",16 µg/mL
same,MIC,"Pseudomonas aeruginosa; strain CDC 0439, IMP",> 64 µg/mL
same,MIC,"Pseudomonas aeruginosa; strain CDC 0441, KPC",> 64 µg/mL
same,MIC,"Pseudomonas aeruginosa; strain CDC 0508, MDR",16 µg/mL
same,MIC,"Pseudomonas aeruginosa; strain CDC 0509, VIM",> 64 µg/mL
same,MIC,"Pseudomonas aeruginosa; strain CDC 0516, KPC",> 64 µg/mL
same,MIC,"Pseudomonas aeruginosa; strain CDC 0518, KPC",> 64 µg/mL
COc1ccc([C@H]2Oc3c(OC)cc(CCCO)cc3[C@@H]2CO)cc1OC [dimethylcedrusin],healing effects,cells; Ecuadorian sap,little healing effects
epigallocatechin [epigalocatechin],effect on cell proliferation,cells,slightly stimulating
CC[C@H]1OC(=O)[C@H](C)[C@@H](O[C@H]2C[C@@](C)(OC)[C@@H](O)[C@H](C)O2)[C@H](C)[C@@H](O[C@@H]2O[C@H](C)C[C@H](N(C)C)[C@H]2O)[C@](C)(O)C[C@@H](C)C(=O)[C@H](C)[C@@H](O)[C@]1(C)O [Erythromycin],MIC,"[1]; S. pyogenes strain 1744264, read-out: MIC",2 µg/mL
same,MIC,"[1]; S. pyogenes strain 1744265, read-out: MIC",> 16 µg/mL
same,MIC,"[1]; S. pyogenes strain 1744271, read-out: MIC",> 16 µg/mL
same,MIC,"[1]; S. pyogenes strain 1744272, read-out: MIC",> 16 µg/mL
same,MIC,"[1]; S. pyogenes strain 1744275, read-out: MIC",> 16 µg/mL
same,MIC,"[1]; S. pyogenes strain 1744277, read-out: MIC",0.5 µg/mL
same,MIC,"[1]; S. pyogenes strain 1744285, read-out: MIC",> 16 µg/mL
same,MIC,"[1]; S. pyogenes strain 2065754, read-out: MIC",> 16 µg/mL
same,MIC,"[1]; S. pyogenes strain 2065755, read-out: MIC",2 µg/mL
same,MIC,"[1]; S. pyogenes strain 2065756, read-out: MIC",2 µg/mL
same,MIC,"[1]; S. pyogenes strain 2065757, read-out: MIC",> 16 µg/mL
same,MIC,"[1]; S. pyogenes strain 2065759, read-out: MIC",4 µg/mL
same,MIC,"[1]; S. pyogenes strain 2065760, read-out: MIC",2 µg/mL
same,MIC,"[1]; S. pyogenes strain 2065761, read-out: MIC",> 16 µg/mL
same,MIC,"[1]; S. pyogenes strain 2065762, read-out: MIC",2 µg/mL
same,MIC,"[1]; S. pyogenes strain 2065763, read-out: MIC",2 µg/mL
same,MIC,"[1]; S. pyogenes strain 2065765, read-out: MIC",> 16 µg/mL
same,MIC,"[1]; S. pyogenes strain 20658748, read-out: MIC",2 µg/mL
same,MIC,"[1]; S. pyogenes strain 20658749, read-out: MIC",1 µg/mL
same,MIC,"[1]; S. pyogenes strain 20658750, read-out: MIC",1 µg/mL
CN[C@H](CC(C)C)C(=O)N[C@H]1C(=O)N[C@@H](CC(N)=O)C(=O)N[C@H]2C(=O)N[C@H]3C(=O)N[C@H](C(=O)N[C@H](C(=O)O)c4cc(O)cc(O)c4-c4cc3ccc4O)[C@H](O)c3ccc(c(Cl)c3)Oc3cc2cc(c3O[C@@H]2O[C@H](CO)[C@@H](O)[C@H](O)[C@H]2O[C@H]2C[C@](C)(N)[C@H](O)[C@H](C)O2)Oc2ccc(cc2Cl)[C@H]1O [Vancomycin],MIC,[1]; S. pyogenes strain 1744264,0.5 µg/mL
same,MIC,[1]; S. pyogenes strain 1744265,8 µg/mL
same,MIC,[1]; S. pyogenes strain 1744271,0.5 µg/mL
same,MIC,[1]; S. pyogenes strain 1744272,1 µg/mL
same,MIC,[1]; S. pyogenes strain 1744275,0.25 to 0.5 µg/mL
same,MIC,[1]; S. pyogenes strain 1744277,4 µg/mL
same,MIC,[1]; S. pyogenes strain 1744285,0.5 µg/mL
same,MIC,[1]; S. pyogenes strain 2065754,0.5 µg/mL
same,MIC,[1]; S. pyogenes strain 2065755,0.5 µg/mL
same,MIC,[1]; S. pyogenes strain 2065756,0.5 µg/mL
same,MIC,[1]; S. pyogenes strain 2065757,0.5 µg/mL
same,MIC,[1]; S. pyogenes strain 2065759,0.5 µg/mL
same,MIC,[1]; S. pyogenes strain 2065760,0.5 µg/mL
same,MIC,[1]; S. pyogenes strain 2065761,0.5 µg/mL
same,MIC,[1]; S. pyogenes strain 2065762,0.5 µg/mL
same,MIC,[1]; S. pyogenes strain 2065763,0.5 µg/mL
same,MIC,[1]; S. pyogenes strain 2065765,2 to 4 µg/mL
same,MIC,[1]; S. pyogenes strain 20658748,0.25 to 0.5 µg/mL
same,MIC,[1]; S. pyogenes strain 20658749,0.5 µg/mL
same,MIC,[1]; S. pyogenes strain 20658750,0.5 µg/mL
